Each structure is given as a SMILES string.

Results on one compound are retold here after publication PMC5000727, “Molecular Insights into the Potential Toxicological Interaction of 2-Mercaptothiazoline with the Antioxidant Enzyme—Catalase” (International Journal of Molecular Sciences, 2016).

The target in the test is T1, catalase (CAT), from bovine liver (Bos taurus, UniProt P00432).
T1 construct: native enzyme from bovine liver, commercial (Sigma), EC 1.11.1.6; homotetramer; PDB 1TGU printed only as docking model
T1 sequence (P00432 2-527): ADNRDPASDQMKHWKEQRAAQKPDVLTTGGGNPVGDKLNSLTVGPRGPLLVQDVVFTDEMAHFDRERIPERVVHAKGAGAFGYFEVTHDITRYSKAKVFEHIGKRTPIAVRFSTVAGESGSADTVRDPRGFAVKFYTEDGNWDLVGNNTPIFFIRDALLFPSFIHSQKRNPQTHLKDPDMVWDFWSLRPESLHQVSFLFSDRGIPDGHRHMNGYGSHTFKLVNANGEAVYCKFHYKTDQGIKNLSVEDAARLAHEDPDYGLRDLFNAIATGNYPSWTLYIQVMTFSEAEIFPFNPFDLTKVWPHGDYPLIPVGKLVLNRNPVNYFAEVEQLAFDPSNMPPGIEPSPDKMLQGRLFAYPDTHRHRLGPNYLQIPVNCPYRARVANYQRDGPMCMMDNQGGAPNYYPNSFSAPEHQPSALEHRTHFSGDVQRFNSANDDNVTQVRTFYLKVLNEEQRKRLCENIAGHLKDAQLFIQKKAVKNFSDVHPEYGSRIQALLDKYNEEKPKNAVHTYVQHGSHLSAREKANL
As to the kind of experiment: intrinsic fluorescence quenching (ex […] nm). It is filed as binding. To be noted: double-log; pH 7.4, 291 K, phosphate buffer; n = 1.14; unit printed mol·L^−1 but must be L·mol^−1 (printed ΔG° agrees); also measured at 300, 309, 318 K.

For `S=C1NCCS1` [2-mercaptothiazoline, 1,3-thiazolidine-2-thione], the “Ka (× 10^4 mol.L^-1)” value is reported as 2.97 × 10^4 mol·L^−1.
